Key:
[1] = Anti-bicuculline effect (tonic convulsion in mice); assay type: in vivo, male ddY-strain mice; settings: Mus musculus, oral, (+)bicuculline 0.6 mg/kg i.v. 1 hour after test compound, tonic convulsion within 5 minutes
Protocol: The experiment of anti-bicuculline effect was performed according to the method described in Life Science, vol. 21, p. 1779 (1977).
In brief, groups of 7-14 male ddY-strain mice weighing 20-28 g were used. (+)Bicuculline (0.6 mg/kg) was intraveneously administered 1 hour after the oral adminstration of test compound, and the ED50, 50% effective dose, was determined by observing the existence of tonic convulsion within 5 minutes.

benzodiazepine receptor = assay: Displacement ability for benzodiazepine receptor (displacement of tritiated diazepam); settings: displacement of tritiated diazepam (2 nM), rat cerebral cortex synaptosomal fraction, pH 7.4, 0° C., 20 minutes; read-out: binding for benzodiazepine Ki
Protocol: The experiment was performed according to the methods described in European Journal of Pharmacology, vol. 51, P. 129 (1978) and Life Science, vol. 20, p. 1201 (1977).
In brief, a crude synaptosomal fraction was isolated from the cerebral cortex of 9 to 10 week-old male Wistar rats and suspended in 50 mM of Tris-hydrochloric acid buffer solution (pH 7.4) containing 120 mM of sodium chloride and 5 mM of potassium chloride.
To the synaptosomal suspension as prepared above were added various concentrations of test compounds and tritiated diazepam (final concentration:2 nM), and the mixture was incubated at 0° C. for 20 minutes. Then the suspension was filtered through Whatman GF/B glass fiber filter. After the filter was washed with the foregoing buffer solution, the radioactivity left on the filter was measured by a liquid scintillation spectrometry.
Specific binding was determined by subtracting binding in the presence of 10^-6 M unlabelled diazepam from total binding.
According to the above experimental method, the affinity of the compounds of the present invention for benzodiazepine receptor is evaluated as an ability to displace tritiated diazepam from the binding site, and is represented as Ki value.

Row | SMILES | ED50 [1] [mg/kg] | Ki (benzodiazepine receptor) [nM]
1 | O=C1CC2C[S+]([O-])c3ccc(F)cc3C2=NN1c1ccc(Cl)cc1 (centres unmarked) [Example 19, 2-(4-chlorophenyl)-9-fluoro-2,3,4,4a-tetrahydro-5H-(1)benzothiopyrano[4,3-c]pyridazin-3-one 6-oxide] | 10.6 | –
2 | Cc1ccc2c(c1)C1=NN(c3ccc(Cl)cc3)C(=O)CC1C[S+]2[O-] (centres unmarked) [Example 23, 2-(4-chlorophenyl)-9-methyl-2,3,4,4a-tetrahydro-5H-(1)benzothiopyrano[4,3-c]pyridazin-3-one 6-oxide] | 40.6 | –
3 | O=C1CC2CSc3ccccc3C2=NN1c1ccc(Br)cc1 (centres unmarked) [Example 13, 2-(4-bromophenyl)-2,3,4,4a-tetrahydro-5H-(1)benzothiopyrano[4,3-c]pyridazin-3-one] | – | 45
4 | O=C1CC2C[S+]([O-])c3ccccc3C2=NN1c1ccc(Cl)cc1 (centres unmarked) [Example 3, 2-(4-chlorophenyl)-2,3,4,4a-tetrahydro-5H-(1)benzothiopyrano[4,3-c]pyridazin-3-one 6-oxide] | 4.1 | –
5 | O=C1CC2CSc3ccccc3C2=NN1c1ccc(Cl)cc1 (centres unmarked) [Example 1, 2-(4-chlorophenyl)-2,3,4,4a-tetrahydro-5H-(1)benzothiopyrano[4,3-c]pyridazin-3-one] | 12.4 | 40
6 | COc1ccc(N2N=C3c4ccccc4SCC3CC2=O)cc1 (centres unmarked) [Example 10, 2-(4-methoxyphenyl)-2,3,4,4a-tetrahydro-5H-(1)benzothiopyrano[4,3-c]pyridazin-3-one] | – | 13
7 | Cc1ccc(N2N=C3c4ccccc4SCC3CC2=O)cc1 (centres unmarked) [Example 9, 2-(4-methylphenyl)-2,3,4,4a-tetrahydro-5H-(1)benzothiopyrano[4,3-c]pyridazin-3-one] | – | 12

From patent US4843075A, “Benzothiopyrano[4,3-c]pyridazine compounds, methods for preparing said compounds and uses of said compounds” (Yoshitomi Pharmaceutical Industries, Ltd., priority 1986, dated 1989)
